From patent US20110152267A1, “Compositions and Methods for Treating Hyperproliferative Disorders” (Texas Tech University System, priority 2009, published 2011)

Columns and labels:
Format in all cases: cell-based, human
Conditions in all cases: 96 h
[1] = system: HT-29 colorectal adenocarcinoma cell line; assay: DIMSCAN cytotoxicity, fenretinide + L-threo-sphinganines 3:1 (Example B10)
Description: (§1) Cytotoxicity Assay—Once again, cytotoxicity is determined using the DIMSCAN assay system (R. Proffitt et al., Cytometry 24, 204-213 (1996); T. Frgala et al., Mol Cancer Ther. 6:886-97, 2007). The system employs digital imaging microscopy to quantify viable cells, which selectively accumulate fluorescein diacetate to become brightly fluorescent. The system is capable of measuring cytotoxicity over a 4-5 log dynamic range by quenching the residual fluorescence of dead and dying cells with eosin Y and quantifying the total fluorescence of viable cells using digital thresholding. Measured fluorescence is directly proportionate to the number of viable cells. A comparison of the total fluorescence of a drug-treated cell population to the fluorescence of a similar number of untreated cells yields a survival fraction. In brief, 2000 to 10,000 cells/well (depending on size and growth rates) are replicate plated into 60 wells of a 96-well tissue culture plate in 0.1 mL of whole medium and allowed to attach overnight. Drug(s) are then added in 0.05 mL of whole medium to the final concentrations indicated. Drugs (fenretinide, and various chain length L-threo-sphinganines) were tested both as single agents and in a 3:1 ratio of fenretinide:sphinganine. C18-L-threo-sphinganine, or “safingol,” was also tested and results shown for reference. There are 12 wells treated per drug concentration. Twelve wells receive drug vehicle-only to the appropriate final concentration and serve as controls for the plate. Cells are incubated for 96 hours at 37° C. in ambient air with 5% CO2. Fluorescein diacetate is then added to each well in 0.05 mL media to a final concentration of 8 microgram/mL. Cells are incubated for a further 15 minutes at 37° C. and 0.03 mL of 0.5% eosin Y is added to each well. Total fluorescence of viable cells is then measured by digital imaging microscopy. Results were graphed as the ratio of the fluoresecence of drug-treated wells to non-drug treated control wells (i.e., Survival Fraction). All tests were performed at least twice. Representative results are shown.
(§2) The Combination Index (CI) is a term to describe mathematical modeling of the pharmacologic effects on cytotoxicity (cell death) of two drugs in combination based. Cytotoxic “synergy” is defined as a cell death affect which is greater than would be expected from a simple product of the single agent cytotoxicities alone (i.e. an “additive” effect). By Chou-Talalay analysis, a CI<0.9 on a Fraction Affected (“Fa”, i.e. fraction of cells killed) indicates synergy, with smaller numbers indicating greater synergy; a CI of 0.9-1.1 signifies an additive or near-additive effect; and a CI>1.1 means the drug combination is antagonistic.
Fenretinide and L-threo-sphinganines tested in human colorectal adenocarcinoma (colon cancer) cell line, HT-29.

[2] = system: SJ-G2 Glioblastoma cell line; assay: DIMSCAN cytotoxicity, fenretinide + L-threo-sphinganines 3:1 (Example B8)
Description: as §1, §2
Fenretinide and L-threo-sphinganines tested in human Glioblastoma (brain cancer) cell line, SJ-G2.

[3] = system: A-172 Glioblastoma multiforme cell line; assay: DIMSCAN cytotoxicity, fenretinide + L-threo-sphinganines 3:1 (Example B4); set-up: key to CI (Combination Index): Chou-Talalay CI: <0.9 synergy, 0.9-1.1 additive, >1.1 antagonism
Description: as §1, §2
Fenretinide and L-threo-sphinganines tested in human Glioblastoma multiforme (brain cancer) cell line, A-172.

[4] = system: OVCAR-8 ovarian adenocarcinoma cell line; assay: DIMSCAN cytotoxicity, fenretinide + L-threo-sphinganines 3:1 (Example B15); set-up: key to CI (Combination Index): Chou-Talalay CI: <0.9 synergy, 0.9-1.1 additive, >1.1 antagonism
Description: as §1, §2
Fenretinide and L-threo-sphinganines tested in human ovarian adenocarcinoma (ovarian cancer) cell line, OVCAR-8.

[5] = system: T98G Glioblastoma multiforme cell line; assay: DIMSCAN cytotoxicity, fenretinide + L-threo-sphinganines 3:1 (Example B6)
Description: as §1, §2
Fenretinide and L-threo-sphinganines tested in human Glioblastoma multiforme (brain cancer) cell line, T98G.

[6] = system: NCI-H-1792 lung adenocarcinoma cell line; assay: DIMSCAN cytotoxicity, fenretinide + L-threo-sphinganines 3:1 (Example B12)
Description: as §1, §2
Fenretinide and L-threo-sphinganines tested in human lung adenocarcinoma (lung cancer) cell line, NCI-H-1792.

[7] = 4-HPR 1.5 μM + L-threo-sphinganine 0.5 μM
[8] = 4-HPR 3 μM + L-threo-sphinganine 1 μM
[9] = 4-HPR 6 μM + L-threo-sphinganine 2 μM
[10] = 4-HPR 9 μM + L-threo-sphinganine 3 μM

Compound: CCCCCCCCC[C@H](O)[C@@H](N)CO [C12]
- CI (Combination Index) [1, 7]: 1.0
- Fa (fraction affected) [1, 7]: 0.217
- CI (Combination Index) [1, 8]: 1.2
- Fa (fraction affected) [1, 8]: 0.642
- CI (Combination Index) [1, 9]: 1.3
- Fa (fraction affected) [1, 9]: 0.951
- CI (Combination Index) [1, 10]: 1.6
- Fa (fraction affected) [1, 10]: 0.975
- CI (Combination Index) [2, 7]: 0.8
- Fa (fraction affected) [2, 7]: 0.199
- CI (Combination Index) [2, 8]: 0.7
- Fa (fraction affected) [2, 8]: 0.530
- CI (Combination Index) [2, 9]: 0.8
- Fa (fraction affected) [2, 9]: 0.764
- CI (Combination Index) [2, 10]: 0.6
- Fa (fraction affected) [2, 10]: 0.931
- CI (Combination Index) [3, 7]: 6.1
- Fa (fraction affected) [3, 7]: 0.024
- CI (Combination Index) [3, 8]: 4.4
- Fa (fraction affected) [3, 8]: 0.065
- CI (Combination Index) [3, 9]: 0.4
- Fa (fraction affected) [3, 9]: 0.849
- CI (Combination Index) [3, 10]: 0.2
- Fa (fraction affected) [3, 10]: 0.981
- CI (Combination Index) [4, 7]: 0.3
- Fa (fraction affected) [4, 7]: 0.382
- CI (Combination Index) [4, 8]: 0.5
- Fa (fraction affected) [4, 8]: 0.445
- CI (Combination Index) [4, 9]: 0.6
- Fa (fraction affected) [4, 9]: 0.634
- CI (Combination Index) [4, 10]: 0.8
- Fa (fraction affected) [4, 10]: 0.704
- CI (Combination Index) [5, 7]: 2.8
- Fa (fraction affected) [5, 7]: 0.306
- CI (Combination Index) [5, 8]: 3.6
- Fa (fraction affected) [5, 8]: 0.408
- CI (Combination Index) [5, 9]: 1.5
- Fa (fraction affected) [5, 9]: 0.781
- CI (Combination Index) [5, 10]: 0.2
- Fa (fraction affected) [5, 10]: 0.981
- CI (Combination Index) [6, 7]: 1.0
- Fa (fraction affected) [6, 7]: 0.217
- CI (Combination Index) [6, 8]: 1.3
- Fa (fraction affected) [6, 8]: 0.642
- CI (Combination Index) [6, 9]: 1.4
- Fa (fraction affected) [6, 9]: 0.951
- CI (Combination Index) [6, 10]: 1.8
- Fa (fraction affected) [6, 10]: 0.975

Compound: CCCCCCCCCCC[C@H](O)[C@@H](N)CO [C14]
- CI (Combination Index) [1, 7]: 1.0
- Fa (fraction affected) [1, 7]: 0.215
- CI (Combination Index) [1, 8]: 1.3
- Fa (fraction affected) [1, 8]: 0.598
- CI (Combination Index) [1, 9]: 1.8
- Fa (fraction affected) [1, 9]: 0.822
- CI (Combination Index) [1, 10]: 1.4
- Fa (fraction affected) [1, 10]: 0.982
- CI (Combination Index) [2, 7]: 1.3
- Fa (fraction affected) [2, 7]: 0.103
- CI (Combination Index) [2, 8]: 1.3
- Fa (fraction affected) [2, 8]: 0.307
- CI (Combination Index) [2, 9]: 1.4
- Fa (fraction affected) [2, 9]: 0.575
- CI (Combination Index) [2, 10]: 1.0
- Fa (fraction affected) [2, 10]: 0.845
- CI (Combination Index) [3, 7]: 23.7
- Fa (fraction affected) [3, 7]: 0.001
- CI (Combination Index) [3, 8]: 3.8
- Fa (fraction affected) [3, 8]: 0.065
- CI (Combination Index) [3, 9]: 1.0
- Fa (fraction affected) [3, 9]: 0.717
- CI (Combination Index) [3, 10]: 0.5
- Fa (fraction affected) [3, 10]: 0.958
- CI (Combination Index) [4, 7]: 0.1
- Fa (fraction affected) [4, 7]: 0.696
- CI (Combination Index) [4, 8]: 0.1
- Fa (fraction affected) [4, 8]: 0.860
- CI (Combination Index) [4, 9]: 0.1
- Fa (fraction affected) [4, 9]: 0.978
- CI (Combination Index) [4, 10]: 0.1
- Fa (fraction affected) [4, 10]: 0.988
- CI (Combination Index) [5, 7]: 1.0
- Fa (fraction affected) [5, 7]: 0.544
- CI (Combination Index) [5, 8]: 1.6
- Fa (fraction affected) [5, 8]: 0.602
- CI (Combination Index) [5, 9]: 1.0
- Fa (fraction affected) [5, 9]: 0.839
- CI (Combination Index) [5, 10]: 0.5
- Fa (fraction affected) [5, 10]: 0.941

Compound: CCCCCCCCCCCC[C@H](O)[C@@H](N)CO [C15]
- CI (Combination Index) [1, 7]: 2.0
- Fa (fraction affected) [1, 7]: 0.204
- CI (Combination Index) [1, 8]: 0.8
- Fa (fraction affected) [1, 8]: 0.660
- CI (Combination Index) [1, 9]: 1.1
- Fa (fraction affected) [1, 9]: 0.859
- CI (Combination Index) [1, 10]: 0.8
- Fa (fraction affected) [1, 10]: 0.976
- CI (Combination Index) [2, 7]: 1.1
- Fa (fraction affected) [2, 7]: 0.135
- CI (Combination Index) [2, 8]: 1.3
- Fa (fraction affected) [2, 8]: 0.282
- CI (Combination Index) [2, 9]: 1.3
- Fa (fraction affected) [2, 9]: 0.620
- CI (Combination Index) [2, 10]: 1.0
- Fa (fraction affected) [2, 10]: 0.846
- CI (Combination Index) [3, 7]: 23.7
- Fa (fraction affected) [3, 7]: 0.001
- CI (Combination Index) [3, 8]: 1.4
- Fa (fraction affected) [3, 8]: 0.378
- CI (Combination Index) [3, 9]: 0.4
- Fa (fraction affected) [3, 9]: 0.991
- CI (Combination Index) [3, 10]: 0.4
- Fa (fraction affected) [3, 10]: 0.998
- CI (Combination Index) [4, 7]: 0.1
- Fa (fraction affected) [4, 7]: 0.668
- CI (Combination Index) [4, 8]: 0.1
- Fa (fraction affected) [4, 8]: 0.854
- CI (Combination Index) [4, 9]: 0.1
- Fa (fraction affected) [4, 9]: 0.977
- CI (Combination Index) [4, 10]: 0.2
- Fa (fraction affected) [4, 10]: 0.977
- CI (Combination Index) [5, 7]: 1.3
- Fa (fraction affected) [5, 7]: 0.516
- CI (Combination Index) [5, 8]: 1.3
- Fa (fraction affected) [5, 8]: 0.683
- CI (Combination Index) [5, 9]: 1.0
- Fa (fraction affected) [5, 9]: 0.849
- CI (Combination Index) [5, 10]: 0.4
- Fa (fraction affected) [5, 10]: 0.962

Compound: CCCCCCCCCCCCCCCCCC[C@H](O)[C@@H](N)CO [C21]
- CI (Combination Index) [1, 7]: 1.2
- Fa (fraction affected) [1, 7]: 0.149
- CI (Combination Index) [1, 8]: 1.2
- Fa (fraction affected) [1, 8]: 0.630
- CI (Combination Index) [1, 9]: 1.8
- Fa (fraction affected) [1, 9]: 0.857
- CI (Combination Index) [1, 10]: 2.3
- Fa (fraction affected) [1, 10]: 0.918
- CI (Combination Index) [2, 7]: 1.5
- Fa (fraction affected) [2, 7]: 0.118
- CI (Combination Index) [2, 8]: 1.9
- Fa (fraction affected) [2, 8]: 0.299
- CI (Combination Index) [2, 9]: 1.5
- Fa (fraction affected) [2, 9]: 0.809
- CI (Combination Index) [2, 10]: 0.5
- Fa (fraction affected) [2, 10]: 0.995
- CI (Combination Index) [3, 7]: 8.8
- Fa (fraction affected) [3, 7]: 0.006
- CI (Combination Index) [3, 8]: 1.6
- Fa (fraction affected) [3, 8]: 0.537
- CI (Combination Index) [3, 9]: 0.8
- Fa (fraction affected) [3, 9]: 0.996
- CI (Combination Index) [3, 10]: >0.1
- Fa (fraction affected) [3, 10]: 1.000
- CI (Combination Index) [4, 7]: 0.1
- Fa (fraction affected) [4, 7]: 0.626
- CI (Combination Index) [4, 8]: 0.1
- Fa (fraction affected) [4, 8]: 0.870
- CI (Combination Index) [4, 9]: 0.1
- Fa (fraction affected) [4, 9]: 0.977
- CI (Combination Index) [4, 10]: 0.2
- Fa (fraction affected) [4, 10]: 0.975
- CI (Combination Index) [5, 7]: 1.2
- Fa (fraction affected) [5, 7]: 0.574
- CI (Combination Index) [5, 8]: 1.0
- Fa (fraction affected) [5, 8]: 0.805
- CI (Combination Index) [5, 9]: 1.8
- Fa (fraction affected) [5, 9]: 0.832
- CI (Combination Index) [5, 10]: 0.1
- Fa (fraction affected) [5, 10]: 0.999
